What follows are molecules tested against T1, Chk2 (Homo sapiens, UniProt O96017) (assay: Chk2 inhibitor IMAP assay (high-throughput Chk2 screening assay)). Settings: IMAP fluorescence polarization assay, 10 μM ATP.
T1 construct: made in house; host or cells: E. coli BL21 Star (Invitrogen)
Assay type: biochemical
Protocol: Compounds set forth in Table 1 were tested in the Chk2 inhibitor IMAP assay described herein in Example 6.84. […] The letters given for the Chk2 EC50 values in Table 1 represent the following ranges: A=<100 nM; B=100-300 nM; C=300-1000 nM; D=1-10 μM; and E>10 μM.
Compounds can be screened for Chk2 inhibitory activity using a high-throughput screening assay based in the immobilized metal ion affinity-based fluorescence polarization (IMAP) assay developed by Molecular Devices. This assay is based on the high affinity binding of phosphate by immobilized metal (MIII) coordination complexes on nanoparticles. A fluorescein-labeled peptide substrate is used as the substrate for the kinase activity of Chk2 in the assay. The IMAP binding reagent stops the kinase reaction. The binding of the binding reagent results in a change in the rate of molecular motion of the peptide and causes an increase in the fluorescence polarization value observed for the fluorescein label attached to the end of the peptide. Thus, inhibition of Chk2 would result in a decrease in fluorescence polarization compared to control.
A specific protocol for screening Compounds for Chk2 inhibitory activity follows.
A Compound is supplied at 1 mM in 0.5 μl DMSO on 384 well plates (such as Greiner or Corning). After thawing, 5 μl DMSO is added to the drug plate. The drug plate is then incubated for 10 minutes to solubilize the Compound. An additional 19.5 μl of reaction buffer (10× stock prepared using 100 mM Tris-HCl, 100 mM MgCl2, 1% BSA, pH 7.2, stored at 4° C.)+1 mM DDT is added to bring the Compound to 4× final concentration. A positive control is also prepared at 4× final concentration. The following control wells are used: less enzyme control (all reagents except enzyme; 5 μl/well), less Compound control (all reagents except Compound; 5 μl/well), positive control (all reagents plus staurosporine at a final concentration of 5 μM; 5 μl/well).
Reagents are then added in the following order to give the following final concentration: 2.5 μl ATP/Chk2tide (Molecular Devices) (10 μM/100 nM final concentration), 1.25 μl Compound (5 μM final concentration inf 5.5% DMSO), and 1.25 μl Chk2 (1:500, 2.4 μg/mL final concentration).
Plates are covered and incubated at room temperature for 60 minutes.
IMAP binding reagent (Molecular Devices) is diluted 1:400 into binding buffer (Molecular Devices). 15 μl of this solution is then added to all wells and the plates are covered and incubated for 30 minutes.
Plates are read using a Tecan Ultra under the fluorescence polarization mode. Gain is set to the less enzyme and less Compound wells for each plate. Excitation 485 nm, emmission 535 nm, Z position 12519 and flashes 5 are used as settings. Raw data from the Tecan reader is imported into an access database for analysis.

T1 sequence (O96017 whole entry): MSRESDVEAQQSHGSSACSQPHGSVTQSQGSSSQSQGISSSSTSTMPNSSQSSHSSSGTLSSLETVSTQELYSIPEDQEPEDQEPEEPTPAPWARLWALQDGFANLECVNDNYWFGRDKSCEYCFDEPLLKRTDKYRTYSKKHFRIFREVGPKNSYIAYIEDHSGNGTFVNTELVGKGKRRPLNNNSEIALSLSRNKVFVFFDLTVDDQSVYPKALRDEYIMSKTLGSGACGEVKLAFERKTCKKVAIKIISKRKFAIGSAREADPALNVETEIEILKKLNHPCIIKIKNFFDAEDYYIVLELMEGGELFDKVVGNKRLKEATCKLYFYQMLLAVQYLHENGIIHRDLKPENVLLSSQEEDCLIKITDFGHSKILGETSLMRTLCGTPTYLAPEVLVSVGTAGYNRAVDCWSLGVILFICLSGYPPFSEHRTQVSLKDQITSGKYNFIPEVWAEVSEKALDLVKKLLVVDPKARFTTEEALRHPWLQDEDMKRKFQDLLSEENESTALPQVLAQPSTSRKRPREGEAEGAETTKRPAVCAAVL

Row | SMILES | EC50
1 | COc1ccc2[nH]c(C(=O)Nc3ccc(/C(C)=N/NC4=NCCN4)cc3)cc2c1 [Compound 19] | 100 to 300 nM
2 | C/C(=N\NC(=N)N)c1ccc(NC(=O)c2cc3c(ccc4ccccc43)[nH]2)cc1 [Compound 107] | 1000 to 10000 nM
3 | C/C(=N\NC(=N)N)c1ccc2[nH]c(C(=O)Nc3ccc4cc[nH]c4c3)cc2c1 [Compound 81] | 300 to 1000 nM
4 | CCCOc1ccc2cc(C(=O)Nc3ccc(/C(C)=N/NC(=N)N)cc3)[nH]c2c1 [Compound 90] | 1000 to 10000 nM
5 | CCC/C(=N/NC(=N)N)c1ccc(NC(=O)c2cc3cc(OC)ccc3[nH]2)cc1 (single isomer, unassigned) [Compound 24] | < 100 nM
6 | COc1cc([N+](=O)[O-])c2[nH]c(C(=O)Nc3ccc(/C(C)=N/NC(=N)N)cc3)cc2c1 [Compound 69] | < 100 nM
7 | CC(=NNC(=N)N)c1ccc(NC(=O)Nc2ccc3c(c2)CCC3=NNC(=N)N)cc1 [Compound 6] | 300 to 1000 nM
8 | COc1ccc2[nH]c(C(=O)Nc3ccc(/C(C)=N/NC(=N)N)cc3)cc2c1 [Compound 10] | < 100 nM
9 | COc1cc2cc(C(=O)Nc3ccc(/C(C)=N/NC(=N)N)cc3)[nH]c2cc1NC(C)=O [Compound 98] | 1000 to 10000 nM
10 | CC(=O)Nc1ccc2cc(C(=O)Nc3ccc(/C(C)=N/NC(=N)N)cc3)[nH]c2c1 [Compound 88] | 300 to 1000 nM
11 | C/C(=N\NC(=N)N)c1ccc2[nH]c(C(=O)Nc3ccc(N4CCNCC4)cc3)cc2c1 [Compound 49] | 100 to 300 nM
12 | COc1ccc2[nH]nc(C(=O)Nc3ccc(/C(C)=N/NC(=N)N)cc3)c2c1 [Compound 42] | > 10000 nM
13 | COc1cc2cc(C(=O)Nc3ccc(/C(C)=N/NC(=N)N)cc3)[nH]c2cc1OCc1ccccc1 [Compound 29] | 1000 to 10000 nM
14 | C/C(=N\NC(=N)N)c1ccc2[nH]c(C(=O)Nc3ccc4nc(C)ccc4c3)cc2c1 [Compound 125] | 100 to 300 nM
15 | C/C(=N/NC(=N)N)c1ccc(NC(=O)c2cc3cc(OCc4ccccc4)ccc3[nH]2)cc1 [Compound 34] | 1000 to 10000 nM
16 | C/C(=N/NC(=N)N)c1ccc(NC(=O)Nc2ccc(/C(C)=N/NC(=N)N)cc2)c2ccccc12 [Compound 60] | 1000 to 10000 nM
17 | CC(=NNC(=N)N)c1ccc(NC(=O)c2cc3cc([N+](=O)[O-])ccc3[nH]2)cc1 [Compound 35] | > 10000 nM
18 | CSC(=N)N/N=C(\C)c1ccc(NC(=O)Nc2ccc(C(C)=O)cc2)cc1 [Compound 64] | > 10000 nM
19 | CC(=NNC(N)=NO)c1ccc(NC(=O)Nc2ccc(C(C)=NNC(N)=NO)cc2)cc1 [Compound 116] | < 100 nM
20 | C/C(=N\NC(=N)N)c1ccc(NC(=O)Nc2ccc(/C(=N/NC(=N)N)c3ccccc3)cc2)cc1 [Compound 54] | 1000 to 10000 nM

Row | SMILES | EC50
21 | C/C(=N/NC(=N)N)c1ccc(NC(=O)Nc2ccc(/C(C)=N/N=C(\N)c3ccccn3)cc2)cc1 [Compound 14] | 300 to 1000 nM
22 | N=C(N)N/N=C1\CCCc2cc(NC(=O)c3cc4cccc([N+](=O)[O-])c4[nH]3)ccc21 [Compound 86] | < 100 nM
23 | C/C(=N\N/C(=N\N)NN)c1ccc(NC(=O)Nc2ccc(/C(C)=N/N/C(=N\N)NN)cc2)cc1 [Compound 65] | 100 to 300 nM
24 | COc1ccc2[nH]c(C(=O)Nc3ccc(/C(C)=N/NC4=NCCN4)cc3)cc2c1 [Compound 23] | < 100 nM
25 | COc1ccc2oc(C(=O)Nc3ccc(/C(C)=N/NC(=N)N)cc3)cc2c1 [Compound 78] | 100 to 300 nM
26 | C/C(=N/N/C(N)=N\O)c1ccc2[nH]c(C(=O)Nc3ccc(N4CCCCC4)cc3)cc2c1 [Compound 128] | 100 to 300 nM
27 | C/C(=N\NC(=N)N)c1ccc(NC(=O)c2cc3c(C)cccc3[nH]2)cc1 [Compound 97] | 1000 to 10000 nM
28 | COc1ccc2cc(C(=O)Nc3ccc(/C(C)=N/NC(=N)N)cc3)[nH]c2c1 [Compound 74] | 300 to 1000 nM
29 | COc1ccc2[nH]c(C(=O)Nc3ccc4c(c3)CC/C4=N\NC(=N)N)cc2c1 [Compound 110] | > 10000 nM
30 | CSc1ccc2cc(C(=O)Nc3ccc(/C(C)=N/NC(=N)N)cc3)[nH]c2c1 [Compound 91] | 300 to 1000 nM
31 | C/C(=N\NC(=N)N)c1ccc2[nH]c(C(=O)Nc3ccc(C)cn3)cc2c1 [Compound 103] | 1000 to 10000 nM
32 | C/C(=N\NC(=N)N)c1ccc(NC(=O)c2cn3ccccc3n2)cc1 [Compound 106] | 1000 to 10000 nM
33 | C/C(=N\NC(=N)N)c1ccc2[nH]c(C(=O)Nc3ccc4ncccc4c3)cc2c1 [Compound 101] | < 100 nM
34 | C/C(=N\NC(=N)N)c1ccc(NC(=O)Nc2ccc(NC(=O)Nc3ccc(/C(C)=N/NC(=N)N)cc3)cc2)cc1 [Compound 39] | < 100 nM
35 | C/C(=N\NC(=N)N)c1ccc(NC(=O)c2cc3ccccc3[nH]2)cc1 [Compound 7] | 300 to 1000 nM
36 | C/C(=N\NC(=N)N)c1ccc(NC(=O)c2cc3cc(F)ccc3[nH]2)cc1 [Compound 87] | 1000 to 10000 nM
37 | CSC(=N)N/N=C(\C)c1ccc(NC(=O)Nc2ccc(/C(C)=N/NC(=N)SC)cc2)cc1 [Compound 63] | 1000 to 10000 nM
38 | C/C(=N\NC(=N)N)c1ccc(NC(=O)c2cc3ccccc3o2)cc1 [Compound 8] | 300 to 1000 nM
39 | C/C(=N\NC(=N)N)c1ccc(NC(=O)c2cc3cc(O)ccc3[nH]2)cc1 [Compound 11] | 300 to 1000 nM
40 | C/C(=N\NC(=N)N)c1ccc(NC(=O)c2cc3cc(N)ccc3[nH]2)cc1 [Compound 25] | 300 to 1000 nM

Row | SMILES | EC50
41 | CC(=O)c1ccc(NC(=O)Nc2ccc(/C(C)=N/NC3=NCCN3)cc2)cc1 [Compound 66] | 100 to 300 nM
42 | COc1cccc2cc(C(=O)Nc3ccc(/C(C)=N/NC(=N)N)cc3)oc12 [Compound 31] | 300 to 1000 nM
43 | CCNc1ccc2cc(C(=O)Nc3ccc(/C(C)=N/NC(=N)N)cc3)[nH]c2c1 [Compound 92] | 300 to 1000 nM
44 | C/C(=N\NC(=N)N)c1ccc2[nH]c(C(=O)Nc3ccc4cnccc4c3)cc2c1 [Compound 126] | < 100 nM
45 | C/C(=N/NC(=N)N)c1ccc(NC(=O)Nc2ccc(/C(C)=N/NC(=N)N)cc2)cc1C [Compound 61] | > 10000 nM
46 | COc1ccc2[nH]nc(C(=O)Nc3ccc(/C(C)=N/NC(=N)N)cc3)c2c1 [Compound 41] | 1000 to 10000 nM
47 | C/C(=N\NC(=N)N)c1ccc(NC(=O)c2c[nH]c3ccccc23)cc1 [Compound 2] | 1000 to 10000 nM
48 | COc1cc2cc(C(=O)Nc3ccc(/C(C)=N/NC(=N)N)cc3)[nH]c2cc1OC [Compound 73] | 300 to 1000 nM
49 | C/C(=N\NC(=N)N)c1ccc(NC(=O)c2cc3cc(C)ccc3[nH]2)cc1 [Compound 9] | 100 to 300 nM
50 | CC(=NNC(=N)N)c1ccc(NC(=O)Nc2ccc(C(C)CNC(=N)N)cc2)cc1 (stereo not drawn) [Compound 62] | > 10000 nM
51 | COc1ccc2nc(NC(=O)c3ccc(/C(C)=N/NC(=N)N)cc3)sc2c1 [Compound 43] | 1000 to 10000 nM
52 | C/C(=N\NC(=N)N)c1ccc(NC(=O)Nc2ccc(/C(C)=N/NC3=NCCN3)cc2)cc1 [Compound 16] | < 100 nM
53 | C/C(=N\NC(=N)N)c1ccc2[nH]c(C(=O)Nc3ccc4nc[nH]c4c3)cc2c1 [Compound 121] | < 100 nM
54 | C/C(=N\NC(=N)N)c1ccc(NC(=O)c2cc3cccc(C(F)(F)F)c3[nH]2)cc1 [Compound 85] | > 10000 nM
55 | COc1cc2cc(C(=O)Nc3ccc(/C(C)=N/NC(=N)N)cc3)[nH]c2cc1N [Compound 99] | 300 to 1000 nM
56 | CNC(=O)Oc1ccc2[nH]c(C(=O)Nc3ccc(/C(C)=N\NC(=N)N)cc3)cc2c1 [Compound 21] | 100 to 300 nM
57 | C/C(=N\NC(=N)N)c1ccc(NC(=O)c2cc3cccc(N)c3[nH]2)cc1 [Compound 77] | 1000 to 10000 nM
58 | C/C(=N\NC(=N)N)c1ccc2[nH]c(C(=O)Nc3cccc(N)c3)cc2c1 [Compound 111] | 300 to 1000 nM
59 | C/C(=N/N=C(\N)c1ccccn1)c1ccc(NC(=O)Nc2ccc(/C(C)=N/N=C(\N)c3ccccn3)cc2)cc1 [Compound 13] | 300 to 1000 nM
60 | C/C(=N\NC(=N)N)c1ccc(NC(=O)c2cc3cc(/C(C)=N/NC(=N)N)ccc3[nH]2)cc1 [Compound 17] | < 100 nM

Reference: patent publication US8765802B2, “Kinase inhibitors, compositions thereof, and methods of use therewith” (Provid Pharmaceuticals, Inc., priority 2007, dated 2014)
